Earlier results, collected in patent US20140127179A1, “Natural Killer Cell Formulations” (SCIENTIFIC FORMULATIONS, LLC, priority 2012, published 2014).
Like-named read-outs stand apart in the source and are kept apart here.

Experiments:
[1] = tested on: Human promyelocytic leukemia cells HL60; settings: HL60 cultured with 30 nM for three years, injected into nu/nu mice
[2] = tested on: Natural Killer cells (NKC); design: key: +: Increased NK cell activity was shown; ±: mixed results; settings: summary of literature studies
[3] = tested on: 3T3-SV40 fibroblasts; settings: for fibroblast sensitivity to lytic activity of NKC: in several hours, NAC 10 mM
[4] = tested on: B16 melanoma cells
[5] = tested on: NK cell activity; settings: combinations of 1 mM thioproline and NAC, 5 μM Vitamin C and vitamin E; all ages studied
[6] = tested on: metastases; settings: NAC administered with haemin and IL-2
[7] = tested on: transformed and embryonic cells
[8] = tested on: cancer cells; design: key: +: Direct Anti-cancer Activity was shown; settings: direct anti-cancer activity, summary of literature studies
[9] = 42 men, 300 μg of Se
[10] = doses up to 5,000 mg
[11] = tested on: tumor cells; settings: inhibited platelet aggregation
[12] = tested on: end-stage cancers
[13] = tested on: interferon-gamma-producing NK cell; settings: nutritional intake of 10 mg
[14] = tested on: NK cell activity; settings: 7 days after the drug injection
[15] = tested on: lymphokine-activated killer (LAK) cell; settings: PPS, MPS and LEN, the three combined; P<0.01
[16] = tested on: NK cell activity of peripheral mononuclear cells
[17] = tested on: NK cell and ADCC activity; settings: CLL patients, from 0.01 to 1 microgram/ml
[18] = tested on: NK cell function; settings: two weeks of high-dose treatment, cancer patients

C=C1/C(=C\C=C2/CCC[C@]3(C)[C@@H]([C@H](C)CCCC(C)(C)O)CC[C@@H]23)C[C@@H](O)C[C@@H]1O [1,25 D3, 1,25-dihydroxyvitamin D3]
tumor growth [1]: reduced rate of tumor growth

O=C(O)CCCCC1CCSS1 (stereo not drawn) [ALA, Alpha-Lipoic Acid]
NKC Activity [2]: ±
fibroblast sensitivity to lytic activity of NKC [3]: reduced significantly

COc1cc(/C=C/C(=O)CC(=O)/C=C/c2ccc(O)c(OC)c2)ccc1O [Curcumin]
NKC Activity [2]: +

O=c1c(-c2ccc(O)cc2)coc2cc(O)cc(O)c12 [Geinstein, Genistein]
NKC Activity [2]: +

CC(C)=CCC[C@](C)(O)[C@H]1CC[C@]2(C)[C@@H]1[C@H](O)C[C@@H]1[C@@]3(C)CC[C@H](O[C@@H]4O[C@H](CO)[C@@H](O)[C@H](O)[C@H]4O)C(C)(C)[C@@H]3CC[C@]12C [Ginsenoside Rh2]
growth of B16 melanoma cells ([4]; mouse, in vivo): inhibits
NK cell activity in spleen cells ([4]; tumor-bearing nude mice): increases

CC(=O)N[C@@H](CS)C(=O)O [NAC, N-Acetyl-Cysteine]
NKC Activity [2]: +
response to NK cell activity after removal of the antioxidant ([3]; 18-20 h after NAC removal): resistance to NK cell activity
sensitivity to lysis by NKC mouse splenocytes ([3]; 18-20 h cultivation, 10 mM): did not change their sensitivity
fibroblast sensitivity to lytic activity of NKC [3]: did not change it
NK cell activity [5]: enhancement
decrease in metastases [6]: 63%
susceptibility of transformed and embryonic cells to NK cell activity ([7]; 10 mM): loss of susceptibility
susceptibility of murine embryonic fibroblasts (MEFs) to NK cell activity ([7]; pretreated with 10 mM): lose their susceptibility

Oc1ccc(C=Cc2cc(O)cc(O)c2)cc1 [Resveratrol]
NKC Activity [2]: +
Anti-Cancer [8]: +

[Se] [Selenium]
NKC Activity [2]: +
counts of NKC and T lymphocytes expressing both sub-units of IL2R [9]: increased counts
Anti-Cancer [8]: +

O=C1O[C@H]([C@@H](O)CO)C(O)=C1O [Vitamin C, Ascorbic acid]
mutagenic lesions; negative effects on NK cell activity, apoptosis or cell cycle [10]: did not induce mutagenic lesions nor had negative effects
NKC Activity [2]: +
NK cell activity [5]: enhancement
increase of NK cell cytotoxicity [11]: 285%
Anti-Cancer [8]: +
NKC function of survivors versus baseline ([12]; 16 survivors, p<0.01): significantly higher
patients still alive ([12]; as of a mean of 6 months): 16/20

C=C1CC[C@H](O)C/C1=C/C=C1\CCC[C@]2(C)[C@@H]([C@H](C)CCCC(C)C)CC[C@@H]12 [Vitamin D3]
NKC Activity [2]: +
Anti-Cancer [8]: +

[Zn] [Zinc]
NKC Activity [2]: +
quantity of interferon-gamma-producing NK cell [13]: increases
Anti-Cancer [8]: +

O=C(O)[C@@H]1CSCN1 [thioproline]
NK cell activity [5]: enhancement

Lentinan
NK cell activity [14]: significantly enhanced
reduction of the dose of rIL-2 needed to have the same LAK activity [15]: 50%
NKC Activity [2]: +
interferon level in the peripheral blood circulation ([16]; cancer patients, 12 h following administration): elevated
NK cell activity of peripheral mononuclear cells ([16]; cancer patients, in 48 h): enhanced
patients with increased NK cell activity of lymphocytes ([16]; n=11, i.v. 2 mg, on the following day): four
Anti-Cancer [8]: +
enhancement of NK cell and ADCC activity [17]: dose-related increase

Vitamin E
NKC Activity [2]: +
NK cell function [18]: enhanced
NK cell activity [5]: enhancement
Anti-Cancer [8]: +
